{
  "source": "patent US20250276073A1",
  "about": "“BICYCLIC PEPTIDE LIGANDS SPECIFIC FOR TRANSFERRIN RECEPTOR 1 (TfR1)” (BicycleTx Limited, priority 2022, published 2025)",
  "note": "pKd: −log10 of the molar value. Starred links: 1 amine or outer side, 2 acyl side, 3 side chain; linkers in the order of their positions; H or OH if unused. Positions of bridges follow the written chain, without caps; N, C: chain ends. Non-standard residues stand in square brackets, D forms with d. Residues, ends and D or L forms follow the SMILES beside them. TATB = O=C(C[*:1])N1CN(C(=O)C[*:2])CN(C(=O)C[*:3])C1; Hyp = O=C(O)[C@@H]1C[C@@H](O)CN1; Tle = CC(C)(C)[C@H](N)C(=O)O",
  "data": [
    {"biological_target": "Human TfR1 (Homo sapiens, UniProt P02786)", "sequence (P02786 89-760)": "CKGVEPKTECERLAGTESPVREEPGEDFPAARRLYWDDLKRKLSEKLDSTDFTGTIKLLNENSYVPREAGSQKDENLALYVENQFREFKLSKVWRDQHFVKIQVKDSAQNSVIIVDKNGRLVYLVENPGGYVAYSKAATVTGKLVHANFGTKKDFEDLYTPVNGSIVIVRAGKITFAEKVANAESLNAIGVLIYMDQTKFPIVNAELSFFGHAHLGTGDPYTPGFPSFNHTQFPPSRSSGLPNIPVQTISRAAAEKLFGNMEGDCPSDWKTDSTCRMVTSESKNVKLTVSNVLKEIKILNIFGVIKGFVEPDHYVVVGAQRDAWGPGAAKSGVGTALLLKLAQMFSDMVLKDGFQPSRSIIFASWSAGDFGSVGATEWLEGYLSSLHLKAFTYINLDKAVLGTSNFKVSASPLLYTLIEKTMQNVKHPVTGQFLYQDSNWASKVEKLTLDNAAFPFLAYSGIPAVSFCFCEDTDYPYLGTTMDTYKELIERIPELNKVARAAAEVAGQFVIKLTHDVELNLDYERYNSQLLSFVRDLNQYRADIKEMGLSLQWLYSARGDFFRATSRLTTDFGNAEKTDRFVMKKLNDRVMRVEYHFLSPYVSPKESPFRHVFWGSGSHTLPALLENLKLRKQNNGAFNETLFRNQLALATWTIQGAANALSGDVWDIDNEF", "assay": "biochemical", "experimental": "Recombinant human and cynomolgus TfR1 were received from Bicycle as Hiss-tagged TfR1 (a.a. 89-760) (ACRO Biosystems, CD1-H5243 and TFR-C524a).\nFor analysis of TfR1 peptide binding, a Biacore T200 or S200 instrument was used utilising a capture/coupling approach with a Cytiva NTA chip at 25° C. with 25 mM HEPES, 0.1M NaCl, 0.05% Tween 20 pH 7.4 as the running buffer. Immobilisation was carried out as follows. The chip was pre-equilibrated with an injection of 500 mM EDTA (pH 8), before activation with 5 mM NiSO4. The surface was then activated using standard amine-coupling chemistry. Briefly, the carboxymethyl dextran surface was activated with a 1:1 ratio of 0.4 M 1-ethyl-3-(3-dimethylaminopropyl) carbodiimide hydrochloride (EDC)/0.1 M N-hydroxy succinimide (NHS). The TfR1 protein (human or cynomolgus) was then captured onto the activated surface after dilution into running buffer to 200 nM and 250 nM respectively. Residual activated groups were blocked with a 7 min injection of 1 M ethanolamine (pH 8.5):HBS-N(1:1). Reference surfaces were activated and blocked as above with no TfR1 protein capture. Capture levels were in the range of 1,500-5,000 RU dependent upon the individual study Buffer was changed to 25 mM HEPES, 0.1M NaCl, 0.05% Tween 20 pH 7.4 1% DMSO.\nA dilution series of test peptides was prepared in this buffer with a top peptide concentration of 5 μM and 6 further 2-fold dilutions. The SPR analysis was run at 25° C. at a flow rate of 30 μl/min with 160 seconds association and 700-800 seconds dissociation. Data were corrected for DMSO excluded volume effects. All data were double-referenced for blank injections and reference surface using standard processing procedures and data processing and kinetic fitting were performed using Scrubber software, version 2.0c (BioLogic Software). Data were fitted using simple 1:1 binding model allowing for mass transport effects where appropriate.", "values": [
      {"smiles": "CC(=O)N[C@H]1CSCC(=O)N2CN3CN(C2)C(=O)CSC[C@@H](C(=O)N[C@@H](CCC(=O)O)C(=O)N2CCC[C@H]2C(=O)N[C@@H](Cc2c[nH]c4ccccc24)C(N)=O)NC(=O)[C@H](Cc2ccc(O)cc2)NC(=O)[C@H](CO)NC(=O)[C@H](C(C)(C)C)NC(=O)[C@H](CSCC3=O)NC(=O)CNC(=O)[C@H](CC(C)C)NC(=O)[C@H](Cc2ccc(O)cc2)NC(=O)[C@H](C)NC(=O)[C@H](CC(=O)O)NC(=O)[C@@H]2C[C@@H](O)CN2C(=O)[C@@H]2C[C@@H](O)CN2C1=O", "note": "[BCY23180, C[HyP][HyP]DAYLGC[tBuGly]SYCEPW]", "pKd": 7.30},
      {"smiles": "CC(=O)N[C@H]1CSCC(=O)N2CN3CN(C2)C(=O)CSC[C@@H](C(=O)N[C@@H](CCC(=O)O)C(=O)N2CCC[C@H]2C(=O)N[C@@H](Cc2ccc(O)cc2)C(N)=O)NC(=O)[C@H](Cc2ccc(O)cc2)NC(=O)[C@H](CO)NC(=O)[C@H](C(C)(C)C)NC(=O)[C@H](CSCC3=O)NC(=O)CNC(=O)[C@H](CC(C)C)NC(=O)[C@H](Cc2ccc(O)cc2)NC(=O)[C@H](C)NC(=O)[C@H](CC(=O)O)NC(=O)[C@@H]2C[C@@H](O)CN2C(=O)[C@@H]2CCCN2C1=O", "note": "[BCY23207, CP[HyP]DAYLGC[tBuGly]SYCEPY]", "pKd": 8.11},
      {"smiles": "CC(=O)N[C@H]1CSCC(=O)N2CN3CN(C2)C(=O)CSC[C@@H](C(=O)N[C@@H](CCC(=O)O)C(=O)N2CCC[C@H]2C(=O)N[C@@H](CCc2ccc(O)cc2)C(N)=O)NC(=O)[C@H](Cc2ccc(O)cc2)NC(=O)[C@H](CO)NC(=O)[C@H](C(C)(C)C)NC(=O)[C@H](CSCC3=O)NC(=O)CNC(=O)[C@H](CC(C)C)NC(=O)[C@H](Cc2ccc(O)cc2)NC(=O)[C@H](C)NC(=O)[C@H](CC(=O)O)NC(=O)[C@@H]2C[C@@H](O)CN2C(=O)[C@@H]2CCCN2C1=O", "note": "[BCY23211, CP[HyP]DAYLGC[tBuGly]SYCEP[hTyr]]", "pKd": 8.11},
      {"smiles": "CC(=O)N[C@H]1CSCC(=O)N2CN3CN(C2)C(=O)CSC[C@@H](C(=O)N[C@@H](CCC(=O)O)C(=O)N2CCC[C@H]2C(=O)N[C@@H](Cc2c[nH]c4ccccc24)C(N)=O)NC(=O)[C@H](Cc2ccc(O)cc2)NC(=O)[C@H](CO)NC(=O)[C@H](C(C)(C)C)NC(=O)[C@H](CSCC3=O)NC(=O)CNC(=O)[C@H](CCC(N)=O)NC(=O)[C@H](Cc2ccc(O)cc2)NC(=O)[C@H](C)NC(=O)[C@H](CC(=O)O)NC(=O)[C@@H]2C[C@@H](O)CN2C(=O)[C@@H]2CCCN2C1=O", "note": "[BCY23223, CP[HyP]DAYQGC[tBuGly]SYCEPW] (Ac-CP[Hyp]DAYQGC[Tle]SYCEPW-NH2; linker 1-9-13 via TATB)", "pKd": 7.30}
    ]}
  ]
}
